Assay results reported in article PMC6271077, “Synthesis, Anticancer and Antibacterial Activity of Salinomycin N-Benzyl Amides” (Molecules, 2014).
Like-named read-outs stand apart in the source and are kept apart here.

Key:
[1] = system: HL-60/vinc; assay: Antiproliferative MTT assay, HL-60/vinc; format: cell-based, human; settings: for IR HL-60/vinc: IR = IC50 HL-60/vinc / IC50 HL-60; for SI HL-60/vinc: SI = IC50 BALB/3T3 / IC50 HL-60/vinc; for IC50: vincristine-resistant subline, 72 h, MTT, mean ± SD, NA: not active in concentrations used (up to 100 µg/mL), read-out: IC50 HL-60/vinc
From the text: (§1) Four human cancer cell lines and one normal cell line were used to evaluate anticancer activity of SAL and its N-benzyl amides: human acute promyelocytic leukemia (HL-60) and its vincristine resistant subline (HL-60/vinc), human colon adenocarcinoma cell lines sensitive (LoVo) and resistant to doxorubicin (LoVo/dx) as well as also normal murine embryonic fibroblast cell line (BALB/3T3). The BALB/3T3 cell line was purchased from the American Type Culture Collection (ATCC Rockville, MD, USA), HL-60 cell line from European Type Culture Collection by courtesy of Professor Spik and Dr Mazurier (Laboratory of Biological Chemistry USTL, Lille, France) and HL-60/vinc, LoVo and LoVo/dx by courtesy of Prof. E. Borowski (Technical University of Gdańsk, Gdańsk, Poland). All the cell lines are maintained in the Institute of Immunology and Experimental Therapy (IIET), Wrocław, Poland.
(§2) Human leukemia cells were cultured in ISCOVE medium (IIET, Wroclaw, Polond) containing 10% fetal bovine serum and 2 mM L-glutamine (Sigma Aldrich) and 1 µg/100 mL […] for HL-60/vinc (Sigma Aldrich). Human colon adenocarcinoma cell lines were cultured in mixture of OptiMEM and RPMI 1640 (1:1) medium (IIET) supplemented with 5% fetal bovine serum (Thermo Fisher Scientific, Waltham, MA, USA), 2 mM L-glutamine, 1 mM sodium pyruvate (Sigma Aldrich) and 10 µg/100 mL doxorubicin for LoVo/dx (Sigma Aldrich). Murine embryonic fibroblast cells were cultured in Dulbecco medium (Gibco, Darmstadt, Germany) supplemented with 10% fetal bovine serum (Thermo Fisher Scientific) and 2 mM L-glutamine (Sigma Aldrich). All culture media contained antibiotics: 100 U/mL penicillin (Sigma Aldrich) and 100 µg/mL streptomycin (Polfa-Tarchomin, City, Poland). All cell lines were cultured during entire experiment in humid atmosphere at 37 °C and 5% CO2.
(§3) Twenty four hours before adding the tested compounds all cell lines were seeded in 96-well plates (Sarstedt, Nümbrecht, Germany) in appropriate media with 10^4 cells per well. All cell lines were exposed to each tested agent at four different concentrations from the range 100 to 0.1 µg/mL for 72 h. The cells were also exposed to the reference drugs: cisplatin (Accord, London, UK) and doxorubicin hydrochloride (Fluka, St. Louis, MO, USA). Additionally, all cell lines were exposed to DMSO (the solvent used for tested compounds, Sigma Aldrich) at the concentrations corresponding to those in the tested agent dilutions. For adherent cells sulphorodamine B assay was performed and MTT assay for leukemia cells.
(§4) Proliferation inhibition of leukemia cells by tested compounds was measured by means of MTT assay. Thus, 20 µL of 3-(4,5-dimethylthiazol-2-yl)-2,5-diphenyl tetrazolium bromide solution (Sigma Aldrich) were added to each well and plates were left in cell incubator for 4 h to allow the cells to metabolize yellow MTT to blue formazan. Then, the lysing mixture consisting of 225 mL dimethylformamide, 67.5 g sodium dodecyl sulfate (both from Sigma Aldrich) and 275 mL of distilled water was added in 80 µL volume per well. Plates were incubated for 24 h for the formazan crystals to be released from cells, dissolved and then absorbance of each well was read at Synergy H4 photometer (BioTek Instruments) at 570 nm wavelength.
(§5) Results are presented as mean IC50 (concentration of the tested compound that inhibits cell proliferation by 50%) ± standard deviation. IC50 values were calculated in Cheburator 1.0.2, Dmitry Nevozhay software for each experiment. Compounds at each concentration were tested in triplicates in single experiment and each experiment was repeated at least three times independently. The IR was defined as the ratio of IC50 for a given compound calculated for resistant cell line to that measured for its parental drug sensitive cell line (Table 4).

[2] = system: LoVo/dx; assay: Antiproliferative SRB assay, LoVo/dx; format: cell-based, human; settings: for IR LoVo/DX: IR = IC50 LoVo/dx / IC50 LoVo; for SI LoVo/DX: SI = IC50 BALB/3T3 / IC50 LoVo/dx; for IC50: doxorubicin resistant subline, 72 h, SRB, mean ± SD, read-out: IC50 LoVo/dx
From the text: as §1, §2, §3
(§6) After 72 h of incubation with tested compounds the cells were fixed in situ by gently adding of 50 µL per well of cold 50% trichloroacetic acid TCA (Avantor Performance Materials, City, Poland) and were incubated at 4 °C for 1 h. Then the wells were washed four times with water and air-dried. Next, 50 µL of 0.2% solution of sulphorodamine B (Sigma Aldrich) in 1% acetic acid (Avantor Performance Materials) were added to each well and plates were incubated at room temperature for 0.5 h. After incubation time, unbound dye was removed by washing plates four times with 1% acetic acid, whereas the stain bound to cells was solubilized with 150 µL of 10 mM Tris base (Sigma Aldrich). Absorbance of each solution was read at Synergy H4 photometer (BioTek Instruments, Winooski, VT, USA) at 540 nm wavelength.
as §5

[3] = system: HL-60; assay: Antiproliferative MTT assay, HL-60; format: cell-based, human; settings: for IC50: 72 h, MTT, mean ± SD, NA: not active in concentrations used (up to 100 µg/mL), read-out: IC50 HL-60; for SI HL-60: SI = IC50 BALB/3T3 / IC50 HL-60
From the text: as §1, §2, §3, §4, §5

[4] = system: BALB/3T3; assay: Antiproliferative SRB assay, normal fibroblasts BALB/3T3; format: cell-based; settings: 72 h, mean ± SD, read-out: IC50 BALB/3T3 (normal cells)
From the text: as §1, with “Poland. […]” for “Poland.”
After 72 h of incubation with tested compounds the cells were fixed in situ by gently adding of 50 µL per well of cold 50% trichloroacetic acid TCA (Avantor Performance Materials, City, Poland) and were incubated at 4 °C for 1 h. […] Absorbance of each solution was read at Synergy H4 photometer (BioTek Instruments, Winooski, VT, USA) at 540 nm wavelength. […]

[5] = system: LoVo; assay: Antiproliferative SRB assay, LoVo; format: cell-based, human; settings: for IC50: 72 h, SRB, mean ± SD, read-out: IC50 LoVo; for SI LoVo: SI = IC50 BALB/3T3 / IC50 LoVo
From the text: as §1, §2, §3, §6, §5

Compound: N.N.[Cl][Pt][Cl] [cisplatin, reference compound]
- IR HL-60/vinc [1]: 6.87
- SI HL-60/vinc [1]: 0.77
- IC50 [1]: 6870 ± 1630 nM
- IR LoVo/DX [2]: 1.41
- SI LoVo/DX [2]: 1.02
- IC50 [2]: 5200 ± 1930 nM
- IC50 [3]: 1000 ± 230 nM
- SI HL-60 [3]: 5.30
- IC50 ([4]; normal murine embryonic fibroblasts): 5300 ± 2930 nM
- IC50 [5]: 3700 ± 1200 nM
- SI LoVo [5]: 1.43

Compound: COc1cccc2c1C(=O)c1c(O)c3c(c(O)c1C2=O)C[C@@](O)(C(=O)CO)C[C@@H]3O[C@H]1C[C@H](N)[C@H](O)[C@H](C)O1 [doxorubicin, reference compound]
- IC50 ([1]; Homo sapiens, HL60/vinc): 880 ± 260 nM
- IR HL-60/vinc [1]: 22.00
- SI HL-60/vinc [1]: 0.20
- IC50 ([2]; Homo sapiens, LoVo/DX): 5460 ± 1560 nM
- IR LoVo/DX [2]: 36.40
- SI LoVo/DX [2]: 0.03
- IC50 ([3]; Homo sapiens, HL-60): 40 ± 40 nM
- SI HL-60 [3]: 4.50
- IC50 ([4]; Mus musculus, BALB/3T3, normal murine embryonic fibroblasts): 180 ± 70 nM
- IC50 ([5]; Homo sapiens, LoVo): 150 ± 60 nM
- SI LoVo [5]: 1.20
